Values after ≈ are worked out from the molar mass of the structure shown. “Also recorded” adds a separate entry of the source. Where two headings read alike, the source gives them in different places.
Key:
[1] = test system: Neisseria gonorrhoeae ATCC49226; assay: Antibacterial MIC assay against N. gonorrhoeae; type: cell-based
[2] = test system: Enterococcus faecium VANS 144754; assay: Antibacterial MIC assay against E. faecium; type: cell-based
[3] = test system: methicillin-resistant Staphylococcus aureus (MRSA) MB5393; assay: Antibacterial MIC assay against MRSA MB5393; type: cell-based
[4] = in vitro; details: human
[5] = test system: Mycobacterium tuberculosis H37Ra (ATCC25177); assay: Antibacterial MIC assay against M. tuberculosis H37Ra; type: cell-based; details: lowest concentration inhibiting ≥90% of growth
[6] = test system: Enterococcus faecalis VANS 144492; assay: Antibacterial MIC assay against E. faecalis; type: cell-based
[7] = MTT cytotoxicity assay, Hep G2; details: human
[8] = test system: human liver adenocarcinoma cell line (Hep G2)
[9] = test system: zebrafish eleuthero embryos; assay: Zebrafish eleuthero embryos toxicity assay (immersion); type: in vivo; details: for toxicity (lethality and sub-lethal toxicity): 3 dpf larvae, 48 h immersion, 1.6–25 μM, read at 5 dpf; for developmental abnormalities: 25 μM, 48 h exposure, 5 dpf, representative larvae
Method: The compounds were dissolved in dimethyl sulfoxide (DMSO) and then diluted in the fish medium (Danieau) in which the 3 dpf zebrafish larvae were swimming for 48 h. The concentrations tested were 1.6, 3.13, 6.25, 12.5 and 25 μM for each of the three compounds. Vehicle-treated Control eleuthero embryos (VHC) were also treated with the same concentration of DMSO (0.5%) in fish medium to compare the possible effects of the compounds.
After the 48 h exposure, corresponding to 5 dpf larvae, the possible mortality, touch-stimulation response and developmental abnormalities were examined using a dissecting microscope coupled with a digital color camera and pictures were captured. Then, the score for the sub-lethal toxicity and lethality was determined for each fish and condition and the mean score was calculated. The assays were independently replicated three times, using 10 embryos for each condition and compound in each assay, and thus the total number of zebrafish embryos used was 480.
Each of the three compounds (3, 4 and 7) was dissolved in 100% dimethyl sulfoxide (DMSO, spectroscopy grade) and diluted in Danieau’s medium to a final concentration of 25 μΜ (0.5% DMSO), followed by ½ serial dilutions to provide five testing concentrations (1.6, 3.13, 6.25, 12.5 and 25 μM).
Next, 3 dpf zebrafish eleuthero embryos randomly selected were immersed in a 24-well plate containing the three compounds in the different testing concentrations (n = 10 larvae per well). At the same time, 10 Vehicle-treated Control eleuthero embryos (VHC) were also treated with 0.5% DMSO, in accordance with the final solvent concentration of testing compounds to compare the possible effects of the compounds. The eleuthero embryos were incubated under a 14/10 h light/dark cycle at 27–28 °C.
After the 48 h exposure, at 5 dpf, the lethality (cardiac rhythm and degraded body were used as clinical criteria) and touch-stimulation response were assessed using non-anesthetized eleuthero embryos, while the possible morphological defects were evaluated after anesthetizing the eleuthero embryos in 0.5 mM tricaine. All observations were performed using an M80 stereo microscope (Leica Microsystems, Danaher Co., Wetzlar, Germany) and pictures were captured with a Leica DFC310 FX digital color camera (Leica Microsystems, Danaher Co., Germany) and stored.
Mean score of lethality and sub-lethal toxicity per condition was calculated as follows: To each adverse effect observed (impaired motility, bad development, body curvature and swim bladder defects) a score of 1 was given (maximum 4 per larva), and a score of 6 to each dead embryo. The mean score was then calculated for all eleuthero embryos (pooled results) examined per condition, as performed before.
The results were obtained from three independent experiments, using ten larvae for each test concentration and compound. Statistical analysis was performed by using GraphPad Prism version 9.0 (GraphPad Software Inc., San Diego, CA, USA) and one-way analysis of variance (ANOVA) followed by Tukey’s multiple comparison test. The criterion for statistical significance was p < 0.05.

[10] = test system: human liver adenocarcinoma cell line (Hep G2); assay: MTT cytotoxicity assay, Hep G2; details: for cytotoxicity (in words): Hep G2, in vitro
[11] = Neisseria gonorrhoeae, ATCC49226
[12] = Enterococcus faecium, VANS144754
[13] = Mycobacterium tuberculosis, read-out: MIC
[14] = Enterococcus faecalis, VANS144492
[15] = Neisseria gonorrhoeae, N. gonorrhoeae ATCC49226, lowest concentration inhibiting ≥90% of growth, read-out: MIC
[16] = Enterococcus faecium, VANS144754, E. faecium VANS 144754, lowest concentration inhibiting ≥90% of growth, read-out: MIC
[17] = Staphylococcus aureus, MRSA MB5393, lowest concentration inhibiting ≥90% of growth after overnight incubation, read-out: MIC
[18] = Enterococcus faecalis, VANS144492, E. faecalis VANS 144492, lowest concentration inhibiting ≥90% of growth, read-out: MIC

Row | Compound | IC50 [4] [µM] | MIC [5, 13] [µM] | MIC [1, 15] [µM] | MIC [2, 16] [µM] | MIC [3, 17] [µM] | MIC [6, 18] [µM] | also measured
1 | penicillin [reference compound] | – | – | – | – | – | – | MIC ([1]; N. gonorrhoeae ATCC49226, lowest concentration inhibiting ≥90% of growth): 5.6 (P) μM
2 | CC(=O)C(C)(O)C(O)CC1CC23OC(=O)C(=C2O)OC(=O)C2(C)C(C=CC4C(OC5OC(C)C(O)C(OC6OC(C)C(OC(=O)c7c(O)ccc(Cl)c7C)C(O)C6O)C5O)C(C)CC(C)C42)C(C)C=CCC3(C)C=C1CO (stereo not shown) [Compound 1, Phocoenamicin D] | > 58.8 | 58 (≈ 64 µg/mL) | – | – | – | – | MIC [1, 11]: > 116 µM; MIC [2, 12]: ≥ 116 µM; MIC ([3]; Staphylococcus aureus, MRSA): 58 µM (≈ 64 µg/mL); MIC [6, 14]: > 58 µM
3 | CC(=O)[C@](C)(O)[C@@H](O)C[C@@H]1C[C@@]23OC(=O)C(=C2O)OC(=O)[C@@]2(C)[C@H]4[C@H](C=C[C@H]2[C@H](C)/C=C/C[C@]3(C)C=C1C)[C@@H](O[C@@H]1O[C@H](C)[C@@H](O)[C@H](O[C@H]2O[C@H](C)[C@@H](OC(=O)c3c(O)ccc(Cl)c3C)[C@H](O)[C@H]2O)[C@H]1O)[C@H](C)C[C@@H]4C [Compound 5, phocoenamicin C] | – | 29.4 to 58.8 (≈ 32 to 64 µg/mL) | > 58.8 | > 58.8 | 29.4 (≈ 32 µg/mL) | > 58.8 | IC50 [7]: > 58.8 µM
4 | C[C@H]1CC[C@@H]2[C@H](C=C[C@H]3[C@H](C)/C=C/C[C@]4(C)C=C(CO)[C@H](C[C@@H](C)O)C[C@]45OC(=O)C(=C5O)C(=O)[C@@]23C)C1 [Compound 7, maklamicin] | 40.2 | 61 (≈ 32 µg/mL) | > 244 | 1 (≈ 0.525 µg/mL) | < 0.5 | 1.9 (≈ 0.997 µg/mL) | cytotoxicity (in words) [8]: moderate activity; toxicity (lethality and sub-lethal toxicity) [9]: no toxicity; also recorded: not to be toxic; MIC ([3]; MRSA MB5393, lowest concentration inhibiting ≥90% of growth after overnight incubation, read-out: MIC): <0.5 µM
5 | CC1=CC2(C)CC=CC(C)C3C=CC4CC(C)CCC4C3(C)C(=O)C3=C(O)C2(CC1CC(C)O)OC3=O (stereo not shown) [Compound 6, Maklamicin B] | > 58.8 | 2 (≈ 1.02 µg/mL) | > 252 | 1 (≈ 0.509 µg/mL) | 2 (≈ 1.02 µg/mL) | 62.9 (≈ 32 µg/mL) | –
6 | CC(=O)[C@](C)(O)[C@@H](O)C[C@@H]1C[C@@]23OC(=O)C(=C2O)C(=O)[C@@]2(C)[C@H]4[C@H](C=C[C@H]2[C@H](C)/C=C/C[C@]3(C)C=C1CO)[C@@H](O[C@@H]1O[C@H](C)[C@@H](O)[C@H](O[C@H]2O[C@H](C)[C@@H](OC(=O)c3c(O)ccc(Cl)c3C)[C@H](O)[C@H]2O)[C@H]1O)[C@H](C)C[C@@H]4C [Compound 4, phocoenamicin B] | 17.6 | 14.7 (≈ 16 µg/mL) | – | – | – | – | MIC [1, 11]: > 118 µM; developmental abnormalities [9]: no developmental abnormalities; toxicity (lethality and sub-lethal toxicity) [9]: no toxicity; also recorded: not to be toxic; MIC [2, 12]: ≥ 58.8 µM; MIC ([3]; Staphylococcus aureus, MRSA): 7.4 µM (≈ 8.05 µg/mL); MIC [6, 14]: > 58.8 µM; cytotoxicity (in words) [10]: moderate activity
7 | COS(C)(=O)=O [MMS, Methyl methanesulfonate, reference compound] | – | – | – | – | – | – | cell death (positive control) ([10]; Hep G2, MTT, 2 mM): 100%
8 | CN[C@H](CC(C)C)C(=O)N[C@H]1C(=O)N[C@@H](CC(N)=O)C(=O)N[C@H]2C(=O)N[C@H]3C(=O)N[C@H](C(=O)N[C@H](C(=O)O)c4cc(O)cc(O)c4-c4cc3ccc4O)[C@H](O)c3ccc(c(Cl)c3)Oc3cc2cc(c3O[C@@H]2O[C@H](CO)[C@@H](O)[C@H](O)[C@H]2O[C@H]2C[C@](C)(N)[C@H](O)[C@H](C)O2)Oc2ccc(cc2Cl)[C@H]1O [vancomycin, reference compound] | – | – | – | 1.4 (≈ 2.03 µg/mL) | 1.4 (≈ 2.03 µg/mL) | 1.4 (≈ 2.03 µg/mL) | MIC ([2]; E. faecium VANS 144754, lowest concentration inhibiting ≥90% of growth): 1.4 (V) μM; MIC ([3]; MRSA MB5393, lowest concentration inhibiting ≥90% of growth after overnight incubation): 1.4 (V) μM; MIC ([6]; E. faecalis VANS 144492, lowest concentration inhibiting ≥90% of growth): 1.4 (V) μM
9 | Cc1c(Cl)ccc(O)c1C(=O)O[C@H]1[C@H](O)[C@@H](O)[C@@H](O[C@@H]2[C@@H](O)[C@H](O[C@@H]3[C@H]4C=C[C@H]5[C@H](C)/C=C/C[C@]6(C)C=C(CO)[C@H](C[C@@H](C)O)C[C@]67OC(=O)C(=C7O)C(=O)[C@@]5(C)[C@@H]4[C@@H](C)C[C@H]3C)O[C@H](C)[C@H]2O)O[C@@H]1C [Compound 2, Phocoenamicin E] | – | 31.5 to 63 (≈ 32 to 64 µg/mL) | > 126 | > 63 | – | > 63 | MIC ([3]; Staphylococcus aureus, MRSA): 31.5 to 63 µM (≈ 32 to 64 µg/mL); cytotoxicity (in words) [10]: moderate activity; IC50 [7]: 21 µM
10 | [H]/N=C(/N)N[C@H]1[C@H](O)[C@@H](O)[C@H](O[C@@H]2O[C@@H](C)[C@](O)(C=O)[C@H]2O[C@@H]2O[C@@H](CO)[C@H](O)[C@@H](O)[C@@H]2NC)[C@@H](N/C(N)=N\[H])[C@@H]1O [streptomycin, reference compound] | – | 2.8 to 5.4 (≈ 1.63 to 3.14 µg/mL) | – | – | – | – | MIC [5]: 2.8–5.4 (S) μM
11 | CC(=O)[C@](C)(O)[C@@H](O)C[C@@H]1C[C@@]23OC(=O)C(=C2O)C(=O)[C@@]2(C)[C@H]4[C@H](C=C[C@H]2[C@H](C)/C=C/C[C@]3(C)C=C1C)[C@@H](O[C@@H]1O[C@H](C)[C@@H](O)[C@H](O[C@H]2O[C@H](C)[C@@H](OC(=O)c3c(O)ccc(Cl)c3C)[C@H](O)[C@H]2O)[C@H]1O)[C@H](C)C[C@@H]4C [Compound 3, phocoenamicin] | – | 7.5 (≈ 8.04 µg/mL) | > 119 | 3.7 to 7.5 (≈ 3.97 to 8.04 µg/mL) | 3.7 (≈ 3.97 µg/mL) | 7.5 (≈ 8.04 µg/mL) | developmental abnormalities [9]: no developmental abnormalities; toxicity (lethality and sub-lethal toxicity) [9]: no toxicity; also recorded: not to be toxic; IC50 [7]: > 58.8 µM

Source: paper PMC10455904, “New Phocoenamicin and Maklamicin Analogues from Cultures of Three Marine-Derived Micromonospora Strains” (Marine Drugs, 2023)
